Laboratory results as given in patent US12115178B2, “Acylated active agents and methods of their use for the treatment of autoimmune disorders” (Flagship Pioneering Innovations V, Inc., priority 2018, dated 2024).

What was measured:
naïve CD4+ T cells = test: Human regulatory T cell differentiation assay; format: cell-based; conditions: 6 days
Description: Peripheral blood mononuclear cells (PBMCs) from whole blood donated by health volunteers were separated by Ficoll-Paque gradient centrifugation and naïve CD4^+ T cells were subsequently isolated using magnet beads (EasySep™ Human Naïve CD4^+ T Cell Isolation Kit, Cambridge, MA). For regulatory T cell (Treg) differentiation assay, naïve CD4^+ T cells were cultured (1-10×10^4 cells) in CTS OpTmizer medium for 6 days and stimulated with 5 ng/ml TGF-β, 100 U/ml IL-2, and ImmunoCult™ Human […] T Cell Activator; Stemcell #10990) with/without our Compounds. Cell viability was determined using a viability dye (eBioscience Fixable Viability Dye eFluor 780: ThermoFisher 65-0865-14) at 1:500 dilution. The cells were gated for Treg, defined as Live, CD11c^−, CD14^−, CD19^−, CD8^−, CD4^+, CD3^+, CD25^+, FOXP3^+. Percent (%) Tregs were calculated as percentage of CD4^+, CD25^+, FOXP3^+ cells over total CD4 T cells. Statistical analysis was performed with GraphPad Prism Software Using One-Way ANOVA.

[1] = Assay 2. Stability in Simulated Intestinal Fluid (SIF); format: in vitro ADME; conditions: SIF pH 6.7 with pancreatin, 1 μM, 37° C.
Outline: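 Compounds at 1 µM (from 1 mM DMSO stock) were incubated at 37 °C with agitation in simulated intestinal fluid: FaSSIF in pH 6.7 phosphate buffer with pancreatin. Aliquots taken from T0 onward were quenched with acetonitrile and analyzed by LC/MS for degradation rate.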

[2] = tested on: type II collagen arthritis; test: In vivo rheumatoid arthritis model (semi-established type II collagen arthritis); parameters: species or system Lewis rats; conditions: for Mean Ankle Diameter AUC (mm*day) / Mean Ankle Periosteal Bone width (um) / Mean Knee Inflammation score (0-5) / Mean Terminal hind paw weights / Mean body weight change, day −1 to 21 (%) / Relative Spleen to Body Weight (Mean) / Mean Ankle Bone Resorption score (0-5) / Mean Ankle Cartilage Damage score (0-5) / Mean Ankle Pannus score (0-5) / Mean Ankle Periosteal Bone score (0-5) / Mean Ankle inflammation score (0-5) / Mean Knee Bone Resorption score (0-5) / Mean Knee Cartilage Damage score (0-5) / Mean Knee Pannus score (0-5) / Serum IgG: rats; for Mean Ankle Bone Resorption score (0-5) / Mean Ankle Cartilage Damage score (0-5) / Mean Ankle Pannus score (0-5) / Mean Ankle Periosteal Bone score (0-5) / Mean Ankle inflammation score (0-5) / Mean Knee Bone Resorption score (0-5) / Mean Knee Cartilage Damage score (0-5) / Mean Knee Pannus score (0-5): 0 = normal, 5 = severe; for Serum IgG: terminal serum ELISA for anti-type II collagen antibodies
Description: A study was conducted to determine the efficacy of test articles dosed by the oral (PO) route for inhibition of the inflammation (paw swelling), cartilage destruction, and bone resorption that occurs in semi-established type II collagen arthritis in female Lewis rats. Rats (10 per group) were injected intradermally (ID) with porcine type II collagen to induce arthritis; one group of rats (4 per group) served as vehicle-treated naïve controls. […] Positive controls were treated PO, BID with the reference compound Tofacitinib citrate (10 mg/kg). The rats were euthanized for necropsy on study day 21 (animals #1-5 in each group, animals #1-2 in naïve group) or 22 (animals #6-10 in each group, animals #3-4 in naïve group). Efficacy evaluation was based on animal body weights (Table 9), daily ankle caliper measurements (FIG. 4), ankle diameter expressed as area under the curve (AUC) (Table 10), terminal hind paw weights (Table 11), histopathologic evaluation of hind paws (Ankle Inflammation score: Table 12, Ankle Pannus score: Table 13, Ankle Cartilage Damage score: Table 14, Ankle Bone Resorption score: Table 15, Ankle Periosteal Bone score: Table 16, Ankle Periosteal Bone Width: Table 17) and knees (Knee Inflammation score: Table 18, Knee Pannus score: Table 19, Knee Cartilage Damage score: Table 20, Knee Bone Resorption score: Table 21), and relative spleen to body weight ratio (Table 22). Terminal serum was analyzed by enzyme-linked immunosorbent assay (ELISA) for anti-type II collagen antibodies (IgG) (Table 23). […] Statistics were conducted using ordinary one-way ANOVA with Dunnett's multiple comparison correction in GraphPad Prism.

[3] = Assay 3. In vitro Colonic Material Stability Assay; format: in vitro ADME; conditions: colonic material slurry, anaerobic, 1 or 10 μM
[4] = Assay 1. Stability in Simulated Gastric Fluid (SGF); format: in vitro ADME; conditions: SGF pH 1.6 with pepsin, 1 μM, 37° C.
Outline: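 Compound at 1 μM final (from 1 mM DMSO stock) incubated at 37° C in SGF: NaCl medium at pH 1.6 with FaSSIF powder and 0.1 mg/mL pepsin, prepared fresh. Aliquots taken at T0 and regular intervals, quenched with equal volume acetonitrile; LC/MS gives degradation rate.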

SMILES	Assay 2 (SIF) (% @ Remaining 4 hours) [1]	Mean Ankle Diameter AUC (mm*day) ([2]; 500 mg/kg PO BID)	Mean Ankle Periosteal Bone width (um) ([2]; 500 mg/kg PO BID)	Mean Knee Inflammation score (0-5) ([2]; 500 mg/kg PO BID)	Mean Terminal hind paw weights ([2]; 500 mg/kg PO BID)	Mean body weight change, day −1 to 21 (%) ([2]; 500 mg/kg PO BID)	Relative Spleen to Body Weight (Mean) ([2]; 500 mg/kg PO BID)	Mean Ankle Bone Resorption score (0-5) ([2]; 500 mg/kg PO BID)	Mean Ankle Cartilage Damage score (0-5) ([2]; 500 mg/kg PO BID)	Mean Ankle Pannus score (0-5) ([2]; 500 mg/kg PO BID)	Mean Ankle Periosteal Bone score (0-5) ([2]; 500 mg/kg PO BID)	Mean Ankle inflammation score (0-5) ([2]; 500 mg/kg PO BID)	Mean Knee Bone Resorption score (0-5) ([2]; 500 mg/kg PO BID)	Mean Knee Cartilage Damage score (0-5) ([2]; 500 mg/kg PO BID)	Mean Knee Pannus score (0-5) ([2]; 500 mg/kg PO BID)	Serum IgG ([2]; 500 mg/kg PO BID)	Assay 3 (% Remaining at 24 h) [3]	Assay 1 (SGF) (% Remaining @ 1 hour) [4]	other results
C[C@@H](O)CCO [(R)-1,3-Butanediol]																			Cell viability % DMSO (naïve CD4+ T cells; 100 uM): = (90%> <110%: =); Cell viability % DMSO (naïve CD4+ T cells; 0.5 mM): = (90%> <110%: =)
CC(=O)O [Acetic acid, acetic acid]																			Cell viability % DMSO (naïve CD4+ T cells; 1 mM): = (90%> <110%: =); Cell viability % DMSO (naïve CD4+ T cells; 3 mM): = (90%> <110%: =)
CCCC(=O)Oc1cc(OC(=O)CCC)c2c(=O)c(OC(=O)CCC)c(-c3ccc(OC(=O)CCC)c(OC(=O)CCC)c3)oc2c1 [Compound 5, [2-butanoyloxy-4-[3,5,7-tri(butanoyloxy)-4-oxo-chromen-2-yl]phenyl]butanoate]	B (25-75% of the tested compound remaining)	93.57 mm*day	699.30 um	5.65	2.3994 g	−10.1%	0.2534	3.33	4.45	3.33	3.70	2.3994	2.65	4.00	2.65	5350.41 µg/mL			Mean Ankle Diameter AUC (mm*day) ([2]; 100 mg/kg PO BID): 89.38 mm*day; Mean Ankle Periosteal Bone width (um) ([2]; 100 mg/kg PO BID): 510.30 um; Mean Knee Inflammation score (0-5) ([2]; 100 mg/kg PO BID): 5.23; Mean Terminal hind paw weights ([2]; 100 mg/kg PO BID): 2.3990 g; Mean body weight change, day −1 to 21 (%) ([2]; 100 mg/kg PO BID): −7.1%; Relative Spleen to Body Weight (Mean) ([2]; 100 mg/kg PO BID): 0.2453; Mean Ankle Bone Resorption score (0-5) ([2]; 100 mg/kg PO BID): 2.53; Mean Ankle Cartilage Damage score (0-5) ([2]; 100 mg/kg PO BID): 3.55; Mean Ankle Pannus score (0-5) ([2]; 100 mg/kg PO BID): 2.53; Mean Ankle Periosteal Bone score (0-5) ([2]; 100 mg/kg PO BID): 2.68; Mean Ankle inflammation score (0-5) ([2]; 100 mg/kg PO BID): 2.3990; Mean Knee Bone Resorption score (0-5) ([2]; 100 mg/kg PO BID): 2.08; Mean Knee Cartilage Damage score (0-5) ([2]; 100 mg/kg PO BID): 2.93; Mean Knee Pannus score (0-5) ([2]; 100 mg/kg PO BID): 2.08; Serum IgG ([2]; 100 mg/kg PO BID): 5937.67 µg/mL; effects on spleen weights relative to body weight, ankle diameter AUC, ankle pannus score, ankle bone resorption score, and ankle periosteal bone score ([2]; rat collagen arthritis, PO BID): significant beneficial effects
CCCC(=O)Oc1cc(C(=O)O)cc(OC(=O)CCC)c1OC(=O)CCC [Compound 45, 3,4,5-tris(butyryloxy)benzoic acid]	A (<25% of the tested compound remaining)	94.20 mm*day	630.00 um	5.25	2.3988 g	−6.3%	0.2534	3.48	4.20	3.48	3.38	2.3988	2.40	3.63	2.48	5431.64 µg/mL	A (<25% of the tested compound remaining)		
O=C(Cc1c[nH]c2ccccc12)Oc1cc(C(=O)O)cc(OC(=O)Cc2c[nH]c3ccccc23)c1OC(=O)Cc1c[nH]c2ccccc12 [Compound 200, 3,4,5-tris({[2-(1H-indol-3-yl)acetyl]oxy})benzoic acid]	A (<25% of the tested compound remaining)																A (<25% of the tested compound remaining)	C (>75% of the tested compound remaining)	
CCC(=O)Oc1cc(C(=O)O)cc(OC(=O)CC)c1OC(=O)CC [Compound 201, 3,4,5-tris(propanoyloxy)benzoic acid]	A (<25% of the tested compound remaining)																A (<25% of the tested compound remaining)	C (>75% of the tested compound remaining)	
